Measured values taken from patent US7772212B2, “Isomaltooligosaccharides to inhibit avian pathogenic intestinal bacteria” (priority 2003, dated 2010).

What was measured:
[1] = tested on: α-Glucosidase (maltase; EC 3.2.1.20); assay: Kinetic assay for α-glucosidase; format: biochemical; conditions: 0%, 0.25%, 0.5% test sugar; maltose 0, 50, 100, 250 mM; 37° C., pH 7
Description: α-Glucosidase (maltase; EC 3.2.1.20), β-NAD, glucose dehydrogenase (EC 1.1.147) and other reagent chemicals were obtained from the Sigma Chemical Co. (St. Louis, Mo.). The kinetic assays were based on the following reaction;
The kinetic assays were all performed in 96-well plates and read at wavelength 320 nm in a SPECTRAmax Plus microtiter plate reader (Molecular Devices Corp., Sunnyvale, Calif.) at 37° C. The software package Softmax™ was used for data analysis. α-Glucosidase (maltase; EC 3.2.1.20), β-NAD, and glucose dehydrogenase (EC 1.1.147) solutions were prepared with 0.1M K2HPO4 (pH 7) buffer. Each well contained 25 μl of 0.13 IU/ml glucose dehydrogenase, 25 μl of 1.65 IU/ml of α-glucosidase, and 20 μl of 12 mM of G-NAD in a total volume of 200 μl with different combinations of sugars and 0.1M K2HPO4 (pH 7) buffer. Absorbance change with time was measured at 320 nm.
In order to determine the role of branching in the inhibition, the Ki values for panose and isomaltotriose were also determined.

[2] = tested on: B. longum; assay: Growth test with panose and maltooligosaccharides; format: cell-based, Bifidobacterium longum; conditions: combinations of panose and maltooligosaccharides (DP 4 to DP 10), anaerobic, 37° C.
Description: (§1) To further determine whether Leuconostoc IMO acts as a starch-metabolism inhibitor, B. longum and S. typhimurium were grown in different combinations of panose and maltooligosaccharides (from DP 4 to DP 10). As the concentration of panose in the growth medium increased, the growth of S. typhimurium slowed but B. longum growth increased. (FIGS. 11A and 11B, respectively).

[3] = tested on: S. typhimurium; assay: Growth test with panose and maltooligosaccharides; format: cell-based, Salmonella typhimurium; conditions: combinations of panose and maltooligosaccharides (DP 4 to DP 10), anaerobic, 37° C.
Description: as §1

SMILES	Inhibition of α-glucosidase (maltase) activity [1]	Growth of B. longum as panose concentration in medium increased [2]	Growth of S. typhimurium as panose concentration in medium increased [3]
OC[C@H]1O[C@H](OC[C@H]2O[C@H](OC[C@H]3OC(O)[C@H](O)[C@@H](O)[C@@H]3O)[C@H](O)[C@@H](O)[C@@H]2O)[C@H](O)[C@@H](O)[C@@H]1O (stereo partly shown) [Isomaltotriose, isomaltotriose]	not inhibitory		
OC[C@H]1O[C@H](OC[C@H]2O[C@H](O[C@H]3[C@H](O)[C@@H](O)C(O)O[C@@H]3CO)[C@H](O)[C@@H](O)[C@@H]2O)[C@H](O)[C@@H](O)[C@@H]1O (stereo partly shown) [panose]	showed an inhibition	increased	slowed
